This note sets out measurements from PMC6493465 (Oncotarget, 2019).

Counter-ions that a name gives are not always drawn. Like-named read-outs stand apart in the source and are kept apart here.

Series [1] can be described thus: Pharmacokinetic assays (plasma and tumor) in nude mice xenografted with MV4-11 cells. Type of series: in vivo, mouse. To be noted: for Cmax / Tmax / AUC / half-life / clearance / Vd: nude, mouse; for AUC: read-out: AUC24; for concentration in tumor fraction versus plasma fraction: xenografted mice; for clearance: read-out: CLtot (converted); for Vd: read-out: Vss. How it is done:
Plasma samples were prepared by centrifugation (n=3 per group; one sample in the combination group was excluded due to improper handling). […] These assays were conducted by Astellas Research Technologies Co., Ltd. under the guidance of Analysis & Pharmacokinetics Research Laboratories, Astellas Pharma, Inc., or by Nemoto Science Co., Ltd. (Ibaraki, Japan). […] Body weight and tumor assessments obtained on with MV4-11 cells received one of the following Day −1 were designated as Day 0 (baseline) measurements. combination treatments: 1. […] The percent tumor regression was calculated using the formula: […]

For series [2], the system named is MOLM-13 cells. The series can be described thus: Annexin-V staining (apoptosis), MOLM-13. Type of series: cell-based, human. To be noted: single agent: IDR 3 nM, AraC 100 nM or Aza 1000 nM, 48 hours. As to the method: MV4-11 cells were seeded in 12-well plates at a concentration of 2 × 10^5 cells/well and cultured overnight. […] MOLM-13 cells were seeded in 12-well plates at a concentration of 1 × 10^5 cells/well and cultured overnight.
Cells were harvested and incubated with Guava® Nexin Reagent (Merck Millipore Corporation, Billerica, MA). Annexin-V-positive cells were assessed using a Guava® PCA microcytometer (Merck Millipore Corporation); the percentage of annexin-V-positive cells (2000 cells per sample) was analyzed using CytoSoft™ software (Merck Millipore Corporation). Mean percentages of annexin-V-positive cells were derived from three independent experiments.

The subject of series [3] is MCL-1, BCL2L10, survivin and cPARP in MOLM-13 cells. The series can be described thus: Western blot analysis of anti-apoptotic protein expression, MOLM-13. The note with it: MOLM-13, 24-hour treatment; gilteritinib 30 nM, AraC 100 nM, IDR 3 nM, Aza 1000 nM. Type of series: cell-based, human. How it is done:
Cell lysates were prepared in radioimmunoprecipitation assay buffer (Thermo Fisher Scientific Inc., Rockford, IL) supplemented with phosphatase (Thermo Fisher Scientific Inc.) and protease inhibitors (Merck, Billerica, MA), electrophoresed on 4%–15% gels, and subsequently transferred to polyvinylidene difluoride membranes. The membranes were blocked using Blocking One (Nacalai Tesque Inc., Kyoto, Japan) for 1 hour and then incubated overnight with primary antibodies to MCL-1, BCL210, cPARP (all from Cell Signaling Technology, Danvers, MA, USA), survivin (R&D Systems, Inc., Minneapolis, MN), and α-actin (MilliporeSigma, Burlington, MA). The membranes were washed with TBS Tween-20 (TBS-T) buffer and incubated with appropriate horseradish peroxidase-linked secondary antibodies (Cell Signaling Technology Japan K.K.) for 1 hour at room temperature. After washing the membranes in TBS-T buffer, enhanced chemiluminescence Western Blotting Detection Reagent ECL-prime (GE Healthcare, Fairfield, CT) was applied. Signals were detected with a charge-coupled device camera (ImageQuant LAS4000; GE Healthcare); signal intensity was quantified using ImageQuant™ TL software (GE Healthcare).

Where [4] appears, read: plasma, ip, 50 mg/kg, AraC in plasma, gilteritinib 3, AraC 50, IDR 0.5 mg/kg.
The mark [5] stands for this setting: plasma, ip, AraC in plasma, gilteritinib 0, AraC 50, IDR 0.5 mg/kg.
Setting [6] is: tumor, ip, 50 mg/kg, AraC in tumor, gilteritinib 3, AraC 50, IDR 0.5 mg/kg.
[7] abbreviates: tumor, ip, AraC in tumor, gilteritinib 0, AraC 50, IDR 0.5 mg/kg.
The mark [8] stands for this setting: idarubicin in tumor, with versus without gilteritinib.
The mark [9] stands for this setting: tumor, iv, 0.5 mg/kg, idarubicin in tumor, gilteritinib 0, AraC 50, IDR 0.5 mg/kg.
Setting [10] is: tumor, iv, idarubicin in tumor, gilteritinib 3, AraC 50, IDR 0.5 mg/kg.

Consider `Nc1ccn([C@@H]2O[C@H](CO)[C@@H](O)[C@@H]2O)c(=O)n1` [AraC, Cytarabine], for which the AUC24 ratio is given as 0.32 in series [1] (AraC in plasma, with versus without gilteritinib) and 1.13 in series [1] (AraC in tumor, with versus without gilteritinib). Besides, in series [1] (AraC in tumor, gilteritinib 0, AraC 50, IDR 0.5 mg/kg), the AUC24 was determined as 7968 ng·h/g. For the same compound, the Cmax in series [1] (setting [4]) amounted to 18000 ng/mL; in series [1] (setting [5]) it was 28700 ng/mL; in series [1] (setting [6]), 1060 ng/g; in series [1] (setting [7]) it was 904 ng/g. The Tmax was 0.083 h in series [1] (setting [4]), 0.25 h in series [1] (setting [5]), 2 h in series [1] (setting [6]) and 2 h in series [1] (setting [7]). The AUC in series [1] (setting [4]) was determined as 9960 ng·h/mL; in series [1] (setting [5]) it was 31600 ng·h/mL. Besides, the “concentration in tumor fraction versus plasma fraction” value in series [1] is “higher in the plasma fraction”. For the same compound, the “mean percentage of annexin V-positive cells” value in series [2] is given as 21.9%. In addition, the “expression of MCL-1, BCL2L10, and survivin” value in series [3] is “little effect”.
Consider `CC(=O)[C@]1(O)Cc2c(O)c3c(c(O)c2[C@@H](O[C@H]2C[C@H](N)[C@H](O)[C@H](C)O2)C1)C(=O)c1ccccc1C3=O` [IDR, Idarubicin hydrochloride], for which the “AUC24 ratio” value in series [1] (idarubicin in plasma, with versus without gilteritinib) stood at 1.23; in series [1] (setting [8]), 1.08. The AUC24 in series [1] (idarubicin in tumor, gilteritinib 0, AraC 50, IDR 0.5 mg/kg) was 4491 ng·h/g; in series [1] (idarubicin in tumor, gilteritinib 3, AraC 50, IDR 0.5 mg/kg) it was 4855 ng·h/g. Moreover, the Cmax ratio in series [1] (setting [8]) came to 1.11. Moreover, the half-life is 2.24 h in series [1] (plasma, iv) and 1.49 h in series [1] (plasma, iv, 0.5 mg/kg). For the same compound, the AUC amounted to 63.3 ng·h/mL in series [1] (plasma, iv, 0.5 mg/kg, idarubicin in plasma, gilteritinib 0, AraC 50, IDR 0.5 mg/kg) and 77.9 ng·h/mL in series [1] (plasma, iv, idarubicin in plasma, gilteritinib 3, AraC 50, IDR 0.5 mg/kg). Further, the clearance in series [1] (plasma, iv, 0.5 mg/kg) is 217 mL/min/kg; in series [1] (plasma, iv), 172 mL/min/kg. For the same compound, the Vd in series [1] (plasma, iv, 0.5 mg/kg) is 26.7 L/kg; in series [1] (plasma, iv), 31.5 L/kg. For the same compound, the Cmax in series [1] (setting [9]) was determined as 204 ng/g; in series [1] (setting [10]), 226 ng/g. Moreover, the time of peak concentration (Tmax) in series [1] (setting [9]) was 4 h; in series [1] (setting [10]) it was 24 h. In series [1], the “concentration in tumor fraction versus plasma fraction” value is reported as “higher in the tumor fraction”. Also, the “mean percentage of annexin V-positive cells” value in series [2] is 36.6%. The “expression of MCL-1, BCL2L10, and survivin” value in series [3] is “little effect”.
